Measured values taken from patent US6353015B1, “Method of treating neurodegenerative disorders” (St. Elizabeth's Medical Center, priority 1998, dated 2002).
Entries after “also recorded” stand apart in the source; their conditions may differ. Read-outs that look alike come from different tables or passages of the source. No end group written: not given here.

Tests used:
[1] = Antihypertensive effect; conditions: in vivo
[2] = tested on: mouse; experiment: Mouse tail suspension test; conditions: in vivo
Excerpt: The combination of cognition-enhancing and antidepressant effect in the one and the same compound might be of additional therapeutic advantage.

[3] = tested on: AF64A-treated rats; conditions: rat, in vivo; for Correct responses, % Learning test / Correct responses, % Retention test: po
[4] = tested on: cerebellar granule cells; experiment: βAP 25-35 toxicity assay in mature cerebellar granule cell cultures (Example 5); type: cell-based, rat; conditions: for protective effect against the toxicity of βAP 25-35 (in words): mature cultures, 8 DIV; for protection of neurons against βAP: compound at 25 μM; for increase of the amount of living CGC, compound alone: concentration range 25-200 μM
Method: FIG. 8. […] The difference in numbers of living neurons before and after 4 days of treatment were determined. The amount of viable neurons is expressed as mean (%) above viable in preliminary photography of the same place. Experiments were repeated 2-3 times (n=12-18). For graphical presentation, average data from representative experiments were converted to percentages of control groups viability. Results were expressed as a percentage of survival cells to compare with control ±SEM and were analyzed by a statistical test (ANOVA).
Cerebellar granule cells (CGC) were prepared from the postnatal rats (7-8 days old) by the following procedure based on the generally accepted methods (V. Gallo et al., J. Neurosci. 7:2203-2213, 1987). The pieces of cerebellum were digested with 0,25 mg/ml trypsin for 25 min. at 37° C. and incubated for 5 min. in 0.1% soybean trypsin inhibitor. After washing, cells were dissociated by triturating. Following two centrifugation-resuspension steps, the cells were plated at a density of 2.5-[…] cells per ml on polylysine-coated 24-well plates (Corning) and maintained at 37° C. in a humidified incubator with 5% CO2/95% room air. The medium was composed of Eagle's minimal essential medium and fetal calf serum (10%) supplemented with 20 mM potassium chloride, 10 mM glucose, 2 mM glutainine, 50 μg/ml gentamycin sulfate. Cytosine arabinoside (10 μM) was added 24-48 h later to prevent the replication of non-neuronal cells.
The βAP 25-35 (Bachem) was dissolved by sonication in sterilized distilled water at a concentration of 1 mM. […]
Neuronal viability was evaluated by morphometric cell counting using the presence of neurites and smooth, round cell bodies as criteria of survival. The cells were examined under the phase-contrast microscope Axiovert 25C with videocamera and Software miroMedia PCTV VideoCap program for image scanning and photography. Cell survival was quantified by counting the number of viable neurons in premarked microscope fields prior to, and 4 days after the exposure. The difference in numbers of living neurons before and after 4 days of treatment was determined.
For each experiment, we used 4-6 separate wells of a 24-well multiwell plate for control (with 0.05% DMSO)and for each concentration of compound or composition of compound with βAP. Each well equals one observation, (average of 25 cells per microscope field). Experiments are repeated 2-3 times (n=12-18). For graphical presentation, average data from representative experiments were expressed as a percentage of survival cells in comparison with control ±SEM and analyzed by ANOVA and Student t-test.

[5] = tested on: AF64A-treated rats; experiment: Two-way shuttle box avoidance, learning and retention tests (Example 3); type: in vivo, rat
[6] = tested on: rats; experiment: Observation of sedative effect during oral treatment
[7] = tested on: Cerebellar granule cells (CGC); experiment: Survival of cerebellar granule cells with amyloid beta-protein (Example 4); type: cell-based, rat; parameters: dose or concentration left out as unconfirmed; conditions: 72 hr
Method: Cerebellar granule cells (CGC) obtained from brains of 8-day rat pups were maintained in culture. The amyloid beta-protein (βAP) and/or NAS derivative (DNAS-18) were added to CGC for a period of 72 hr. Vehicle solution was added to CGC in the control experiments. Survival of CGS was assessed by lactate dehydrogenase method and by visual counting of living neurons.

[8] = tested on: AF64A-treated rats; experiment: Morris water maze test; type: in vivo, rat; conditions: 0.3 mg/kg daily orally; day 1 and day 5
Method: FIGS. 7A and 7B Average swim latency made by rats, when trained 1 (A) and […] to find a platform in Morris water maze test. […] Results were estimated as time required for rat felt into a water pool to reach a platform;**−[…], ***−p<0.001 vs. AF64A-treated group, where p is the significance level (post hoc ANOVA).
The test was started 2 days after the last injection of tested compounds and was performed daily for the period from 3 to 9 day. Round swimming pool (1,8 m diameter and 0,45 m high) with 22° C. water was placed in the center of the room. The platform was located 1 cm below the surface of the water. Starting points for the swims were at the cardinal compass points (N, S, E, W), which were selected in a semi-random fashion for each rat on each trial.
Each experimental group, i.e., control, AF64A-treated groups and groups for each concentration of the tested compounds, contained 9-11 rats. Results were estimated as time required for rat felt into a water pool to reach a platform (a sum of two trials from different position every day). Data were analyzed as the mean±SEM. (ANOVA followed by post hoc comparisons).

[9] = in rats; Oxenkrug et al. 1994; cited from earlier work
[10] = 3 mg/kg p.o. for 12 days after AF64A i.c.v. 3 nmol/ventricle

Row | Molecule | antihypertensive effect [1] | antidepressant-like activity (decreasing the duration of immobility) [2] | melting point [°C] | cognitive performance of AF64A-treated rats in active avoidance and in water-maze tests (summary) [3] | performance in learning paradigm of the active avoidance test (in words) [3] | performance in retention paradigm of the active avoidance test (in words) [3] | Correct responses, % Learning test ([3]; 3 mg/kg) [%] | Correct responses, % Retention test ([3]; 3 mg/kg) [%] | protective effect against the toxicity of βAP 25-35 (in words) ([4]; 4 days) | sedative effect ([6]; 0.3 mg/kg orally daily) | Correct responses, % Learning test ([3]; 0.3 mg/kg) [%] | Correct responses, % Retention test ([3]; 0.3 mg/kg) [%] | Correct responses, % Learning test ([3]; 1 mg/kg) [%] | Correct responses, % Retention test ([3]; 1 mg/kg) [%] | protection of neurons against βAP ([4]; 25 μM βAP) [%] | response time (swim latency to platform) [8] | comparative efficacy in preventing βAP toxicity [4] | increase of the amount of living CGC, compound alone [4] | other results
1 | CCC(=O)NCCc1c[nH]c2ccc(OCc3ccccc3)cc12 [CA-15, N-[2-(5-Benzyloxyindol-3-yl)ethyl]propanamide] | antihypertensive | antidepressant-like effects | 110 to 112 | improve cognitive performance | strong tendency (although not reaching the level of statistical significance) towards the improvement | improved the performance | 61.4 ± 7.4 | 68.0 ± 8.4 | exerted a neuroprotective effect; also recorded: Protective effect | – | – | – | – | – | – | – | – | – | duration of cognition-enhancing effect in retention test after the learning trials ([5]; 3 mg/kg p.o. for 12 days after AF64A): ≥ 10 days; number of correct responses, learning test (in words) [5, 10]: almost completely restored; number of correct responses, retention test (in words) [5, 10]: almost completely restored
2 | CCCC(=O)NCCc1c[nH]c2ccc(OCc3ccccc3)cc12 [CA-18, N-[2-(5-Benzyloxyindol-3-yl)ethyl] butanamide] | antihypertensive | antidepressant-like effects | 112 to 114 | improve cognitive performance | completely restored; also recorded: strong tendency (although not reaching the level of statistical significance) towards the improvement | – | – | – | exerted a neuroprotective effect | did not induced sedation | 84.0 ± 5.4 | 82.7 ± 5.0 | 50.0 ± 8.8 | 48.1 ± 9.8 | 93 | decreased the response time | – | – | antidepressant-like activity, comparison CA-18 with CA-15 [2]: more pronounced; sedative effect ([6]; 1 mg/kg orally daily): did not induced sedation; viability of neurons, compound added to βAP [7]: 98±4 % of control; increase of viability of CGC neurons, compound alone ([7]; mean±S.E.): 18±3 % of control
3 | COc1ccc2[nH]cc(CCNC(C)=O)c2c1 [Melatonin, reference compound] | – | – | – | improve cognitive performance | completely restored; also recorded: significant but somewhat less pronounced | completely restored; also recorded: significant but somewhat less pronounced | 75.4 ± 7.0 | 72.2 ± 5.8 | Protective effect | did not induced sedation | 79.0 ± 6.0 | 83.2 ± 3.2 | – | – | 90 | decreased the response time | less effective | 3-10 % of control | onset of sedative effect ([6]; 3 mg/kg orally daily): 3-4 days of treatment; sedative effect ([6]; 3 mg/kg orally daily): unspecified sedative effect; protective effect against the toxicity of βAP 25-35 (in words) ([4]; 4 days, listed as melatonin): exerted a neuroprotective effect
4 | CC(=O)NCCc1c[nH]c2ccc(O)cc12 [NAS, N-acetylserotonin] | – | – | – | improve cognitive performance | improved the performance | not in retention | – | – | exerted a neuroprotective effect; also recorded: Protective effect | – | – | – | 65.4 ± 8.8 | 56.0 ± 9.2 | – | – | strongest | 16-28 % of control | conversion of NAS into melatonin [9]: rapidly converted into melatonin; viable neurons, co-incubation with βAP ([4]; 25 μM compound): 101±5 % of control
5 | GSNKGAIIGLM [βAP, reference compound] | – | – | – | – | – | – | – | – | – | – | – | – | – | – | – | – | – | – | viability of neurons exposed to βAP alone ([4]; 25 μM βAP, 4 days, mean ±SEM): 58±7 % of control; viability of CGC neurons with βAP alone ([7]; βAP, mean±S.E.): 56±8 % of control
